One assay has as its system E. coli ATCC 25922. The assay can be described thus: MIC by broth microdilution, E. coli ATCC 25922, no FBS. The class given is cell-based. To be noted: Escherichia coli, ATCC25922, 35° C., 18-24 h. Here is the method:
(§1) Minimal inhibitory concentrations (MIC) were determined by the broth microdilution method in accordance with the Clinical and Laboratory Standards Institute (CLSI) guidelines. In brief, organism suspensions were adjusted to a 0.5 McFarland standard to yield a final inoculum between 3×10^5 and 7×10^5 colony-forming units (CFU)/mL. Drug dilutions and inocula were made in sterile, cation adjusted Mueller-Hinton Broth (Beckton Dickinson). An inoculum volume of 100 μL was added to wells containing 100 μL of broth with 2-fold serial dilutions of drug. All inoculated microdilution trays were incubated in ambient air at 35° C. for 18-24 h. […] Performance of the assay was monitored by the use of laboratory quality-control strains and levofloxacin, a compound with a defined MIC spectrum, in accordance with CLSI guidelines.

The next assay concerns E. coli BW25113. The assay can be described thus: MIC by broth microdilution, E. coli BW25113, no FBS. The class given is cell-based. To be noted: Escherichia coli, 35° C., 18-24 h. How it is done: as §1
(In general: Broth dilution looks for growth in wells or tubes with falling amounts of substance.)

The next assay has as its system P. aeruginosa 209. Nature of the assay: MIC by broth microdilution, P. aeruginosa 209. It is filed as cell-based. To be noted: Pseudomonas aeruginosa, 35° C., 18-24 h. How it is done:
as §1

A further assay deals with E. coli imp mutant. Nature of the assay: MIC by broth microdilution, E. coli imp mutant. The class given is cell-based. The conditions noted are these: Escherichia coli, read-out: MIC E. coli imp mutant. Here is the method: as §1
Assay [1] has as its system E. coli delta to IC mutant. Nature of the assay: MIC by broth microdilution, E. coli delta tolC mutant. The conditions noted are these: Escherichia coli, read-out: MIC E. coli delta to IC mutant. It is filed as cell-based. Here is the method: as §1
The next assay deals with S. aureus ATCC 29213. Nature of the assay: MIC by broth microdilution, S. aureus ATCC 29213. It is filed as cell-based. To be noted: Staphylococcus aureus, ATCC29213; 35° C., 18-24 h. How it is done: as §1
For assay [2], the system named is P. aeruginosa 210 delta mexAB-OprM. The assay can be described thus: MIC by broth microdilution, P. aeruginosa 210 delta mexAB-OprM. It is filed as cell-based. The conditions noted are these: Pseudomonas aeruginosa, read-out: MIC P. aeruginosa 210 delta mexAB-OprM. How it is done:
as §1

The target of assay [3] is Klebsiella pneumoniae LpxC (Klebsiella pneumoniae subsp. pneumoniae (strain ATCC 700721 / MGH 78578), UniProt A6T4N9). Nature of the assay: Inhibition Assay against Klebsiella pneumoniae LpxC (LC-MS/MS). To be noted: 0.2 nM Kpn LpxC, 22° C., 60 minutes. It is filed as biochemical. Here is the method:
LpxC inhibition assays were performed using liquid chromatography with tandem mass spectrometry. Assays were performed, in duplicate, in opaque, 96-well microplates in a total assay volume of 50 μL. The incubation mixture contained: LpxC (0.2 nM Kpn), 0.8 μM UDP-3-O—[(R)-3-hydroxymyristoyl]-N-acetyl-glucosamine, 40 mM Bis-Tris/HCl buffer (pH 5.9), 5 mM sodium phosphate buffer (NaH2PO4/Na2HPO4, pH 7.0), 1 mM DTT, 0.1% (w/v) fatty-acid free BSA, 10% DMSO (v/v, with or without compound). The reactions were incubated at 22° C. for 60 minutes (with mild shaking), then terminated by the addition of 25 μL 0.25 N HCl. Samples were analyzed using a LC-MS system to measure native LpxC substrate and reaction product. IC50 analysis was done using GeneData Screener and a four parameter variable slope normalized to controls. Test compounds were prepared as 8-point dose-response curves (factor dilution 2) in triplicate, starting at 1 μM final concentration. Each assay plate included 6 wells used for the Z′ factor calculation, 3 as a positive control for the assay and 3 as a negative control. The robustness was calculated as the median Z′ factor for 5 plates.

Values after ≈ are worked out from the molar mass of the structure shown.

With `Cn1cc(O)c(=O)cc1CNC(=O)c1ccc(C#Cc2ccccc2)cc1` [Compound 94], the MIC (against E. coli ATCC 25922; against E. coli BW25113; against P. aeruginosa 209; with E. coli imp mutant; in assay [1]; with S. aureus ATCC 29213) was > 32 µg/mL in each case. Moreover, the MIC in assay [2] is > 32 µg/mL.
Regarding `CNC(=O)c1nc(C)n(CC(O)c2ccc(-c3ccccc3)cc2)c(=O)c1O` (centres unmarked) [Compound 91, 1-(2-([1,1′-biphenyl]-4-yl)-2-hydroxyethyl)-5-hydroxy-N,2-dimethyl-6-oxo-1,6-dihydropyrimidine-4-carboxamide], the MIC in the assay on E. coli ATCC 25922 is > 32 µg/mL; in the assay with E. coli BW25113, > 32 µg/mL; in the assay with P. aeruginosa 209 it was > 32 µg/mL; with E. coli imp mutant, > 32 µg/mL; in assay [1] it was 8 to 32 µg/mL (≈ 21.1 to 84.3 µM); in the assay with S. aureus ATCC 29213 it was 8 to 32 µg/mL (≈ 21.1 to 84.3 µM). For the same compound, in assay [2], the MIC is > 32 µg/mL.
`CS(=O)(=O)Cc1nc(COc2ccc(C#CC#Cc3ccccc3)cc2)[nH]c(=O)c1O` [Compound 70, 5-hydroxy-6-((methylsulfonyl)methyl)-2-((4-(phenylbuta-1,3-diyn-1-yl)phenoxy)methyl)pyrimidin-4(3H)-one]: the MIC in the assay with E. coli ATCC 25922 is > 32 µg/mL; in the assay on E. coli BW25113 it was > 32 µg/mL; in the assay on P. aeruginosa 209 it was > 32 µg/mL; in the assay on E. coli imp mutant, 1 to 8 µg/mL (≈ 2.3 to 18.4 µM); in assay [1] it was 8 to 32 µg/mL (≈ 18.4 to 73.7 µM); in the assay on S. aureus ATCC 29213, 8 to 32 µg/mL (≈ 18.4 to 73.7 µM). The MIC in assay [2] is > 32 µg/mL.
Regarding `CCOC(=O)c1nc(C)n(CC(=O)c2ccc(-c3ccccc3)cc2)c(=O)c1O` [Compound 84, ethyl 1-(2-([1,1′-biphenyl]-4-yl)-2-oxoethyl)-5-hydroxy-2-methyl-6-oxo-1,6-dihydropyrimidine-4-carboxylate], the MIC (with E. coli ATCC 25922; in the assay on E. coli BW25113; in the assay with P. aeruginosa 209; in the assay on E. coli imp mutant; in assay [1]; against S. aureus ATCC 29213) was > 32 µg/mL in each case. Moreover, the MIC in assay [2] was > 32 µg/mL.
Take `O=C(c1ccc(C#CC#Cc2ccc(NCc3nc[nH]c(=O)c3O)cc2)cc1)N1CCC[C@H]1CO` [Compound 99]: the MIC with E. coli ATCC 25922 is > 32 µg/mL; in the assay with E. coli BW25113 it was 1 to 8 µg/mL (≈ 2.13 to 17.1 µM); against P. aeruginosa 209, > 32 µg/mL; in the assay on E. coli imp mutant, < 1 µg/mL; in assay [1] it was < 1 µg/mL; in the assay on S. aureus ATCC 29213, > 32 µg/mL. For the same compound, the MIC in assay [2] is > 32 µg/mL.
As to `Cc1nc(C(=O)O)c(O)c(=O)n1CC(O)c1ccc(C#Cc2ccccc2)cc1` (centres unmarked) [Compound 90], the MIC against E. coli ATCC 25922 was > 32 µg/mL; against E. coli BW25113, > 32 µg/mL; in the assay with P. aeruginosa 209, > 32 µg/mL; in the assay with E. coli imp mutant, 1 to 8 µg/mL (≈ 2.56 to 20.5 µM); in assay [1] it was 8 to 32 µg/mL (≈ 20.5 to 82 µM); in the assay on S. aureus ATCC 29213, > 32 µg/mL. The MIC in assay [2] is > 32 µg/mL.
Take `CN(C)C1CCN(C(=O)c2ccc(C#CC#Cc3ccc(NCc4nc[nH]c(=O)c4O)cc3)cc2)C1` (centres unmarked) [Compound 100]: the MIC in the assay on E. coli ATCC 25922 is 1 to 8 µg/mL (≈ 2.08 to 16.6 µM); in the assay with E. coli BW25113, 1 to 8 µg/mL (≈ 2.08 to 16.6 µM); with P. aeruginosa 209 it was > 32 µg/mL; in the assay on E. coli imp mutant, < 1 µg/mL; in assay [1], < 1 µg/mL; in the assay with S. aureus ATCC 29213 it was > 32 µg/mL. The MIC in assay [2] was > 32 µg/mL.
For the compound `COC(=O)c1ccc(C#CC#Cc2ccc(NCc3nc[nH]c(=O)c3O)cc2)cc1` [Compound 71, Methyl 4-((4-(((5-hydroxy-6-oxo-1,6-dihydropyrimidin-4-yl)methyl)amino)phenyl)buta-1,3-diyn-1-yl)benzoate], the MIC (against E. coli ATCC 25922; against E. coli BW25113; against P. aeruginosa 209; with E. coli imp mutant; in assay [1]; in the assay on S. aureus ATCC 29213) was > 32 µg/mL throughout. The MIC in assay [2] was > 32 µg/mL.
For the compound `CCOC(=O)c1nc(C)n(CC(O)c2ccc(C#Cc3ccccc3)cc2)c(=O)c1O` (centres unmarked) [Compound 89], the MIC in the assay on E. coli ATCC 25922 was > 32 µg/mL; in the assay on E. coli BW25113, > 32 µg/mL; against P. aeruginosa 209, > 32 µg/mL; in the assay on E. coli imp mutant, 8 to 32 µg/mL (≈ 19.1 to 76.5 µM); in assay [1] it was > 32 µg/mL; in the assay with S. aureus ATCC 29213, 8 to 32 µg/mL (≈ 19.1 to 76.5 µM). Besides, the MIC in assay [2] was > 32 µg/mL.
With `O=C(O)c1ccc(C#CC#Cc2ccc(NCc3nc[nH]c(=O)c3O)cc2)cc1` [Compound 87], the MIC against E. coli ATCC 25922 is 1 to 8 µg/mL (≈ 2.59 to 20.8 µM); against E. coli BW25113, 1 to 8 µg/mL (≈ 2.59 to 20.8 µM); against P. aeruginosa 209 it was > 32 µg/mL; in the assay with E. coli imp mutant, 1 to 8 µg/mL (≈ 2.59 to 20.8 µM); in assay [1] it was < 1 µg/mL; in the assay on S. aureus ATCC 29213 it was > 32 µg/mL. In addition, the MIC in assay [2] was > 32 µg/mL.
Regarding `O=c1[nH]cnc(CNc2ccc(C#Cc3ccc(CN4CCOCC4)cc3)cc2)c1O` [Compound 98], the MIC against E. coli ATCC 25922 was 1 to 8 µg/mL (≈ 2.4 to 19.2 µM); with E. coli BW25113, < 1 µg/mL; with P. aeruginosa 209 it was > 32 µg/mL; with E. coli imp mutant, 1 to 8 µg/mL (≈ 2.4 to 19.2 µM); in assay [1], < 1 µg/mL; with S. aureus ATCC 29213 it was > 32 µg/mL. The MIC in assay [2] is > 32 µg/mL. For the same compound, the IC50 in assay [3] is 10 to 100 nM.
Take `O=C(c1ccc(C#CC#Cc2ccc(NCc3nc[nH]c(=O)c3O)cc2)cc1)N1CCOCC1` [Compound 97]: the MIC with E. coli ATCC 25922 is 1 to 8 µg/mL (≈ 2.2 to 17.6 µM); against E. coli BW25113, < 1 µg/mL; with P. aeruginosa 209, > 32 µg/mL; with E. coli imp mutant it was < 1 µg/mL; in assay [1], < 1 µg/mL; in the assay with S. aureus ATCC 29213, > 32 µg/mL. Besides, the MIC in assay [2] was > 32 µg/mL. In assay [3], this compound yielded a concentration for half-maximal inhibition (IC50) of 10 to 100 nM.

As a reminder, the IC50 is the midpoint of a concentration-inhibition curve. Read a high IC50 as weaker potency in that assay.

These data come from patent US10875832B2, “Substituted pyrimidines for treating bacterial infections” (FORGE THERAPEUTICS, INC., priority 2015, dated 2020).
